Where a name gives a salt, the structure may show the parent alone.
System: patients with FECD after descemetorhexis
Test: Phase 2 study of ripasudil eye drops after descemetorhexis in patients with Fuchs endothelial corneal dystrophy
Type: in vivo, human
Conditions: BID and QID dosing of a 0.4% formulation, topical to the eye
From the text: As a condition of participating in the clinical study described in Example 3, each patient will undergo descemetorhexis of a study eye selected by the investigator for surgery. A digital photo of the study eye is taken immediately before and immediately after the descemetorhexis. The investigator will perform descemetorhexis to remove central confluent guttae, removing an area of Descemet membrane with a diameter of 4.5 to 5.5 mm. The longest diameter and the shortest diameter must be recorded. Detailed procedures for performing descemetorhexis are described in several literature references, including, for example, Macsai M S, Shiloach M. Cornea. 2019; 38:529-534, and Moloney G, Congote D G, Hirnschall N, et al. Cornea. 2020 Jul. 31. doi: 10.1097/ICO.0000000000002437. Online ahead of print.
Recommended post-descemetorhexis concomitant therapy consists of broad spectrum antibiotic (0.5% moxifloxacin hydrochloride) instilled at least once daily for 1 week and glucocorticoid (1% prednisolone acetate) instilled 3 times daily for the first 7 days, followed by once daily for the next 7 days, and terminated thereafter. The investigator may add antibiotic and glucocorticoid dosing after this 14 days as rescue therapy if the investigator judges it necessary. When more than 1 different eye drop is administered (including study drug), the study drug must be administered first, followed by any non-study eye drop (after at least 5 minutes have passed).
In this U.S. FDA approved study, the primary objective is to investigate the effect of K-321 dosed for 12 weeks on central ECD in patients with FECD after descemetorhexis. […]

C[C@H]1CNCCCN1S(=O)(=O)c1cccc2cncc(F)c12 [ripasudil hydrochloride, Ripasudil]
demonstrated particular benefit: improving best corrected visual acuity (BCVA) | improving central corneal endothelial corneal density (ECD) | reduction of corneal edema
